Laboratory results from US20090130064A1, “DIFFERENTIATION OF STEM CELLS AND STABILIZATION OF PHENOTYPICAL PROPERTIES OF PRIMARY CELLS” (priority 2004, published 2009).

Legend:
rat hepatocytes [1] = assay: LDH index (membrane damage) in rat hepatocyte suspensions; assay type: cell-based; details: concentrations up to 100 μM; 6 h
primary rat hepatocytes = assay: Albumin secretion (ELISA) by primary rat hepatocyte cultures; assay type: cell-based
Description: Medium samples were collected at 72 hours of culture and analyzed for their albumin content by an enzyme-linked immunosorbent assay (ELISA) as described (Dunn et al. Biotechnol Prog 7: 237-245, 1991) Cell morphology was analyzed by light microscopy (×100). Pictures were taken using an Optiphot Nikon Phase Contrast microscope (Cetec, Brussels, Belgium).
Medium samples were collected at 72 hours of culture and analyzed for their albumin content by an enzyme-linked immunosorbent assay (ELISA) as described (Dunn et al. Biotechnol Prog 7: 237-245, 1991).

p21 = assay: Western blotting of p21 in primary rat hepatocytes; assay type: cell-based
Text: Male outbred Sprague-Dawley rats (200-300 g, Iffa Credo, Brussels, Belgium) were kept under controlled environmental conditions (12-hr light-dark cycle) and fed a standard diet (Animafabo A04, water ad libitum). Hepatocytes were isolated by a two-step collagenase perfusion as described (De Smet et al. In ‘Methods in Molecular Biology, Vol. 107: Cytochrome P450 Protocols’, Philips I R and Shephard E A, eds., pp 295-301, Humana Press, Totowa, 1998). Cell liability was >90% as determined by trypan blue exclusion. Cells (0.4×10^5 cells/cm^2) were plated in MEM/M199 (3:1), containing BSA (1 mg/ml), bovine insulin (10 μg/ml), L-glutamine (2 mM), FBS (10% v/v) and antibiotics (7.3 IU/ml benzyl penicillin, 50 μg/ml streptomycin sulphate, 50 μg/ml kanamycin monosulphstep and 10 μg/ml sodium ampicillin). Four hours after plating, serum-containing medium was removed and fresh serum-free medium was added to the cultures. Culture medium was refreshed daily. […]
Total cell extracts were prepared as described previously (Papeleu et al. J Hepatol 39: 374-382, 2003) and proteins (25 or 50 μg per lane) were separated electrophoretically by SDS-PAGE and electroblotted onto nitrocellulose membranes (Amersham Pharmacia Biotech, Buckinghamshire, UK). […] Proteins were detected using the ECL detection system (Amersham Pharmacia Biotech, Buckinghamshire, UK) according to the manufacturer's recommendations.

[2] = test system: freshly isolated rat hepatocytes; assay: Biotransformation in suspensions of freshly isolated rat hepatocytes; assay type: in vitro ADME
Description: Male outbred Sprague Dawley rats (Iffa Credo, Brussels, Belgium) weighing 200-300 g were used. The animals were kept under controlled environmental conditions (12 h light-dark cycle) and had free access to food (Animalabo A 04) and water. After intraperitoneal injection of Nembutal® (0.1 ml/kg body weight), hepatocytes were isolated as described by De Smet et al.. Cell integrity was evaluated by trypan blue exclusion, and was 88±3% (n=20). 5, 25 and 50 μM of both compounds were incubated with 2×10^6 hepatocytes/ml (final volume 3 ml) in HEPES buffer (pH 7.65, 37° C.) up to 6 h. Control samples were obtained by boiling the hepatocyte suspension for 2 min prior to the addition of substrate; cell-free controls contained the substrate in the incubation buffer without hepatocytes. At selected time intervals, 1.0 ml aliquots were submersed in liquid nitrogen to stop the biotransformation reaction.
After centrifugation (2000 g, 45 min, 4° C.) of the diluted microsomal samples, the clear supernatant was injected onto a HPLC column. Samples from incubations with hepatocytes were thawed on ice and centrifugated (120 g, 2 min). The supernatants (extracellular) were subjected to solid phase extraction (Waters Oasis™ HLB cartridges, Waters Corporation, Milford, Mass., USA), while cell pellets (intracellular) were ultrasonicated in 1 ml methanol and centrifugated (2000 g, 30 min, 4° C.). Separations ([…]) were performed by reversed-phase HPLC (Kontron chromatographic system, Milan, Italy) on a Discovery C18, 5 μm, 250×4.6 mm column (Supelco, Sigma-Aldrich, Bornem, Belgium). The mobile phase consisted of component A (0.1% (v/v) aqueous trifluoroacetic acid) and component B (0.1% (v/v) trifluoroacetic acid in acetonitrile). A linear gradient from 3 to 80% (v/v) B was used over 30 min at a flow rate of 1.0 ml/min. […]

rat hepatocytes [3] = assay: Albumin ELISA in primary rat hepatocyte monolayers (conditions C1, C2); assay type: cell-based; details: 1 μM TSA; from D4 (C2) or D7 (C1) on
Description: In all conditions, the hepatocytes were cultivated as a monolayer configuration, and samples were taken at days 1, 4 and 7 (D1, D4, D7) of the cultivation time.
ALB concentrations secreted into the media were analysed by competitive enzyme-linked immunosorbent assay (ELISA) as described (Koebe et al. Int J Artif Organs 17: 95-106, 1994). The ALB levels were normalized with respect to the media used.

SMILES	cell viability (LDH leakage) of hepatocytes in suspension (rat hepatocytes [1])	secretion of albumin versus cells isolated in absence of TSA (primary rat hepatocytes; 1 μM TSA in the collagenase perfusion solution)	p21 accumulation (p21; 1 μM TSA during liver perfusion and culture, 72 hours)	time to complete metabolism / full degradation ([2]; 50 μM, 2×10^6 hepatocytes/ml)	albumin secretion (rat hepatocytes [3])	secretion of albumin into the culture medium compared with 1 μM TSA (primary rat hepatocytes; 50 μM 4-Me2N-BAVAH from day 0)	increase in albumin secretion (primary rat hepatocytes; 50 μM, 72 hours, versus untreated EGF-stimulated hepatocytes)	p21 expression (p21; 50 μM 4-Me2N-BAVAH + EGF)	time to full degradation ([2]; 50 μM, 2×10^6 hepatocytes/ml)	half-life in comparison to TSA ([2]; rat hepatocyte suspensions)
CC(C=CC(=O)NO)=CC(C)C(=O)c1ccc(N(C)C)cc1 (centres unmarked) [TSA]	did not affect cell viability	significantly higher secretion of albumin	complete absence of p21 accumulation	≤ 40 min	improves albumin secretion					
CN(C)c1ccc(C(=O)NCCCCC(=O)NO)cc1 [4-Me2N-BAVAH, 5-(4-dimethylaminobenzoyl)-aminovaleric acid hydroxamide]	not toxic					significantly higher secretion of albumin	2.44±0.29 fold	completely inhibited	more than 3 h	longer half-life
